Like-named read-outs stand apart in the source and are kept apart here.
Columns and labels:
[1] = tested on: MV-4-11 cells; experiment: Half inhibitory concentration (IC50) on BET-expressing tumor cells, CCK-8, MV-4-11
Description: Determination of the Half Inhibitory Concentration (IC50) of PROTAD Compounds on Tumor Cells
MV-411 cells, MM1S cells and SR cells were seeded in 100 μL IMDM/RPMI1640/DMEM complete medium at a density of 15000/10000 cells/well; MDA-MB-231 cells, MDA-MB-468 cells, and MDA-MB453 cells were seeded in 100 μL IMDM/RPMI1640/DMEM complete medium at a density of 3000/5000 cells/well, respectively. 100 μL of the inoculated cells were treated with 0.5 μL diluted PROTAD compounds of the present disclosure to be tested at 10 successively decreasing concentrations (starting at the highest concentration of 10 μM; 5-fold serial dilutions). After the cells were treated with the tested drugs 48/72 h, the cell viability was determined according to the CCK-8 reagent manual. The negative control was DMSO, and the positive control was a commercial inhibitor. After CCK-8 treatment for 2 h, the value of O.D.450 was measured using a microplate reader.

[2] = target: ALK protein (Homo sapiens, UniProt Q9UM73); experiment: Western-blot half degradation concentration (DC50) of ALK protein in H3122 cells; format: cell-based; conditions: 24 h drug treatment, read-out: DC50 (nM)/ H3122 cell line
Description: ALK-positive SR cells (human large cell immunoblastic lymphoma) were purchased from the American Type Culture Collection (ATCC); H3122 cells (human non-small cell lung cancer) were from the Shanghai University of Science and Technology Lin Haifan's research group.
The cells used in this present disclosure were cultured in a 37° C. incubator containing 5% CO2.
DC50 (drug concentration corresponding to protein degradation to 50%) calculation: according to the gray value of the corresponding Western blotting band after drug treatment, fitting the relationship curve between drug concentration and gray value to calculate the drug concentration range corresponding to half of the gray value.

[3] = tested on: K562 cells (BCR-ABL positive); experiment: Half inhibitory concentration (IC50) on tumor cells, CCK-8, K562; conditions: Homo sapiens, K562, 48 h, read-out: IC50 (nM)/K562 cell line
Description: Determination of Half Inhibitory Concentration (IC50) of PROTAD Compounds on Tumor Cells
K562 cells were seeded in 100 μL of RPMI1640 complete medium at a density of 20,000 cells/well. 100 μL of the inoculated cells were treated with 100 μL diluted PROTAD compound of the present disclosure to be tested at 9 successively decreasing concentrations (starting at the highest concentration of 10 μM; 3-fold serial dilutions). After the cells were treated with the tested drugs for 48 hours, the cell viability determination was performed in accordance with CCK-8 reagent operating instructions. The negative control was DMSO, and positive control was a commercial inhibitor. After CCK-8 treatment for 2 h, the value of O.D.450 was measured using a microplate reader.

[4] = Homo sapiens, MV4-11, read-out: IC50 (nM)/MV-4-11 cell line, MV-4-11 cells, 48/72 h, CCK-8
[5] = read-out: IC50 (nM)/MV-4-11 cell line, MV-4-11 cells, 48/72 h, CCK-8

Chain of ALK protein (Q9UM73 with tags, fused parts or gaps): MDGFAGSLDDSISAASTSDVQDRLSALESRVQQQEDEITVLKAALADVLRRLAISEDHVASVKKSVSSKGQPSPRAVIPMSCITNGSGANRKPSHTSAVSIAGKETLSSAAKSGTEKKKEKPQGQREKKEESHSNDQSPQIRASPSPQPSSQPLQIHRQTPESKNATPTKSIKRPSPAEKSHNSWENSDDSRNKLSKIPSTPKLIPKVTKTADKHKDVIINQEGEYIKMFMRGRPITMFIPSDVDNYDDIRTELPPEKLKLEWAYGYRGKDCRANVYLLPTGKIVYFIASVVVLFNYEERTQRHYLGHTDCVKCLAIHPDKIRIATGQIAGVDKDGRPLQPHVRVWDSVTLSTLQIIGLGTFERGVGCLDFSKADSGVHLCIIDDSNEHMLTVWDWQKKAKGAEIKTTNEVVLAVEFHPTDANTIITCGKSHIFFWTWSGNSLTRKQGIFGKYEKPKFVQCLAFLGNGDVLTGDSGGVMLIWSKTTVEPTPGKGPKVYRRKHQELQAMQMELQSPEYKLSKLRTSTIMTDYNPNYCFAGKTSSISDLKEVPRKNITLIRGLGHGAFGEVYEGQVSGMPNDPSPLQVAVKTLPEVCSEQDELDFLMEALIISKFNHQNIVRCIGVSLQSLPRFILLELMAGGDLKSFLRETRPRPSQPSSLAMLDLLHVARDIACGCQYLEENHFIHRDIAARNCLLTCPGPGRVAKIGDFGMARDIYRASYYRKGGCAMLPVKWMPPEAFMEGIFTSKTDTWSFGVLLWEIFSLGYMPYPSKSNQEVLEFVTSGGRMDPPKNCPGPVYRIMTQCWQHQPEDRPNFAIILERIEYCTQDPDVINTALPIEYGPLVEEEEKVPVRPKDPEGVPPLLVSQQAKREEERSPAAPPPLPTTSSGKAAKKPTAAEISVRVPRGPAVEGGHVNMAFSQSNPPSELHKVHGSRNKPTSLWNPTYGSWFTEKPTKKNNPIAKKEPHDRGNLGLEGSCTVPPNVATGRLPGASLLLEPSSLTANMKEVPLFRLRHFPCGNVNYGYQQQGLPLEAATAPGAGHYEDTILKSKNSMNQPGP

SMILES | IC50 [1, 4] [nM] | IC50 [3] [nM] | other results
Cc1sc2c(c1C)C(c1ccc(Cl)cc1)=N[C@@H](CC(=O)NCCN1CCNCC1)c1nnc(C)n1-2 [SIAIS213130] | 29.8 |  | IC50 [1, 5]: 17.7 nM
CCc1cc2c(cc1N1CCN(C(=O)CCCSc3cccc4c3C(=O)N(C3CCC(=O)NC3=O)C4=O)CC1)C(C)(C)c1[nH]c3cc(C#N)ccc3c1C2=O (stereo not shown) [SIAIS164070, 8-(4-(4-((2-(2,6-dioxopiperidin-3-yl)-1,3-dioxoisoindolin-4-yl)thio)butanoyl)piperazin-1-yl)-9-ethyl-6,6-dimethyl-11-oxo-6,11-dihydro-5H-benzo[b]carbazole-3-carbonitrile] |  |  | DC50 [2]: 100 to 500 nM
Cc1ccc(C(=O)Nc2ccc(CN3CCN(C(=O)CCCCCSc4cccc5c4CN(C4CCC(=O)NC4=O)C5=O)CC3)c(C(F)(F)F)c2)cc1C#Cc1cnc2cccnn12 (stereo not shown) [SIAIS220055, N-(4-((4-(6-((2-(2,6-dioxopiperidin-3-yl)-1-oxoisoindolin-4-yl)thio)hexanoyl)piperazin-1-yl)methyl)-3-(trifluoromethyl)phenyl)-3-(imidazo[1,2-b]pyridazin-3-ylethynyl)-4-methylbenzamide] |  | 5.58 | 
Cc1sc2c(c1C)C(c1ccc(Cl)cc1)=N[C@@H](CC(=O)N1CCN(CCCSc3cccc4c3CN(C3CCC(=O)NC3=O)C4=O)CC1)c1nnc(C)n1-2 (stereo partly drawn) [SIAIS213117, 3-(4-((3-(4-(2-((S)-4-(4-chlorophenyl)-2,3,9-trimethyl-6H-thieno[3,2-f][1,2,4]triazolo[4,3-a][1,4]diazepin-6-yl)acetyl)piperazin-1-yl)propyl)thio)-1-oxoisoindolin-2-yl)piperidine-2,6-dione] | 0.063 |  | IC50 [1, 5]: 0.041 nM
Cc1ccc(C(=O)Nc2ccc(CN3CCN(C(=O)CCCSc4cccc5c4C(=O)N(C4CCC(=O)NC4=O)C5=O)CC3)c(C(F)(F)F)c2)cc1C#Cc1cnc2cccnn12 (stereo not shown) [SIAIS220047, N-(4-((4-(4-((2-(2,6-dioxopiperidin-3-yl)-1,3-dioxoisoindolin-4-yl)thio)butanoyl)piperazin-1-yl)methyl)-3-(trifluoromethyl)phenyl)-3-(imidazo[1,2-b]pyridazin-3-ylethynyl)-4-methylbenzamide] |  | 3.23 | 
Cc1ccc(C(=O)Nc2ccc(CN3CCN(C(=O)CCSc4cccc5c4C(=O)N(C4CCC(=O)NC4=O)C5=O)CC3)c(C(F)(F)F)c2)cc1C#Cc1cnc2cccnn12 (stereo not shown) [SIAIS220046, N-(4-((4-(3-((2-(2,6-dioxopiperidin-3-yl)-1,3-dioxoisoindolin-4-yl)thio)propanoyl)piperazin-1-yl)methyl)-3-(trifluoromethyl)phenyl)-3-(imidazo[1,2-b]pyridazin-3-ylethynyl)-4-methylbenzamide] |  | 2.97 | 
COc1cc(Nc2c(C#N)cnc3cc(OCCCN4CCN(C(=O)CCCSc5cccc6c5C(=O)N(C5CCC(=O)NC5=O)C6=O)CC4)c(OC)cc23)c(Cl)cc1Cl (stereo not shown) [SIAIS151170, 4-((2,4-dichloro-5-methoxyphenyl)amino)-7-(3-(4-(4-((2-(2,6-dioxopiperidin-3-yl)-1,3-dioxoisoindolin-4-yl)thio)butanoyl)piperazin-1-yl)propoxy)-6-methoxyquinoline-3-carbonitrile] |  | 400 | 
Cc1ccc(C(=O)Nc2ccc(CN3CCN(C(=O)CCCSc4cccc5c4CN(C4CCC(=O)NC4=O)C5=O)CC3)c(C(F)(F)F)c2)cc1C#Cc1cnc2cccnn12 (stereo not shown) [SIAIS220053, N-(4-((4-(4-((2-(2,6-dioxopiperidin-3-yl)-1-oxoisoindolin-4-yl)thio)butanoyl)piperazin-1-yl)methyl)-3-(trifluoromethyl)phenyl)-3-(imidazo[1,2-b]pyridazin-3-ylethynyl)-4-methylbenzamide] |  | 4.06 | 
Cc1sc2c(c1C)C(c1ccc(Cl)cc1)=N[C@@H](CC(=O)N1CCN(CCCCSc3cccc4c3CN(C3CCC(=O)NC3=O)C4=O)CC1)c1nnc(C)n1-2 (stereo partly drawn) [SIAIS213138, 3-(4-((4-(4-(2-((S)-4-(4-chlorophenyl)-2,3,9-trimethyl-6H-thieno[3,2-f][1,2,4]triazolo[4,3-a][1,4]diazepin-6-yl)acetyl)piperazin-1-yl)butyl)thio)-1-oxoisoindolin-2-yl)piperidine-2,6-dione] | 0.084 |  | IC50 [1, 5]: 0.051 nM
Cc1sc2c(c1C)C(c1ccc(Cl)cc1)=N[C@@H](CC(=O)NCCN1CCN(CCCCCSc3cccc4c3CN(C3CCC(=O)NC3=O)C4=O)CC1)c1nnc(C)n1-2 (stereo partly drawn) [SIAIS213133, 2-((S)-4-(4-chlorophenyl)-2,3,9-trimethyl-6H-thieno[3,2-f][1,2,4]triazolo[4,3-a][1,4]diazepin-6-yl)-N-(2-(4-(5-((2-(2,6-dioxopiperidin-3-yl)-1-oxoisoindolin-4-yl)thio)pentyl)piperazin-1-yl)ethyl)acetamide] | 0.036 ± 0.045 |  | 
COc1cc(Nc2c(C#N)cnc3cc(OCCCN4CCN(C(=O)CCCCCCSc5cccc6c5C(=O)N(C5CCC(=O)NC5=O)C6=O)CC4)c(OC)cc23)c(Cl)cc1Cl (stereo not shown) [SIAIS151173, 4-((2,4-dichloro-5-methoxyphenyl)amino)-7-(3-(4-(7-((2-(2,6-dioxopiperidin-3-yl)-1,3-dioxoisoindolin-4-yl)thio)heptanoyl)piperazin-1-yl)propoxy)-6-methoxyquinoline-3-carbonitrile] |  | 8260 | 
Cc1sc2c(c1C)C(c1ccc(Cl)cc1)=N[C@@H](CC(=O)N1CCNCC1)c1nnc(C)n1-2 [SIAIS213113] | 21.6 |  | IC50 [1, 5]: 12.9 nM
Cc1ccc(C(=O)Nc2ccc(CN3CCN(C(=O)CCCCCCSc4cccc5c4CN(C4CCC(=O)NC4=O)C5=O)CC3)c(C(F)(F)F)c2)cc1C#Cc1cnc2cccnn12 (stereo not shown) [SIAIS220056, N-(4-((4-(7-((2-(2,6-dioxopiperidin-3-yl)-1-oxoisoindolin-4-yl)thio)heptanoyl)piperazin-1-yl)methyl)-3-(trifluoromethyl)phenyl)-3-(imidazo[1,2-b]pyridazin-3-ylethynyl)-4-methylbenzamide] |  | 5.98 | 
COc1cc(Nc2c(C#N)cnc3cc(OCCCN4CCN(C(=O)CCCCSc5cccc6c5C(=O)N(C5CCC(=O)NC5=O)C6=O)CC4)c(OC)cc23)c(Cl)cc1Cl (stereo not shown) [SIAIS151171, 4-((2,4-dichloro-5-methoxyphenyl)amino)-7-(3-(4-(5-((2-(2,6-dioxopiperidin-3-yl)-1,3-dioxoisoindolin-4-yl)thio)pentanoyl)piperazin-1-yl)propoxy)-6-methoxyquinoline-3-carbonitrile] |  | 1540 | 
Cc1sc2c(c1C)C(c1ccc(Cl)cc1)=N[C@@H](CC(=O)NCCN1CCN(CCCCSc3cccc4c3CN(C3CCC(=O)NC3=O)C4=O)CC1)c1nnc(C)n1-2 (stereo partly drawn) [SIAIS213139, 2-((S)-4-(4-chlorophenyl)-2,3,9-trimethyl-6H-thieno[3,2-f][1,2,4]triazolo[4,3-a][1,4]diazepin-6-yl)-N-(2-(4-(4-((2-(2,6-dioxopiperidin-3-yl)-1-oxoisoindolin-4-yl)thio)butyl)piperazin-1-yl)ethyl)acetamide] | 0.027 ± 0.006 |  | 
Cc1ccc(C(=O)Nc2ccc(CN3CCN(C(=O)CCCCSc4cccc5c4CN(C4CCC(=O)NC4=O)C5=O)CC3)c(C(F)(F)F)c2)cc1C#Cc1cnc2cccnn12 (stereo not shown) [SIAIS220054, N-(4-((4-(5-((2-(2,6-dioxopiperidin-3-yl)-1-oxoisoindolin-4-yl)thio)pentanoyl)piperazin-1-yl)methyl)-3-(trifluoromethyl)phenyl)-3-(imidazo[1,2-b]pyridazin-3-ylethynyl)-4-methylbenzamide] |  | 2.68 | 
Cc1ccc(C(=O)Nc2ccc(CN3CCN(C(=O)CCCCCSc4cccc5c4C(=O)N(C4CCC(=O)NC4=O)C5=O)CC3)c(C(F)(F)F)c2)cc1C#Cc1cnc2cccnn12 (stereo not shown) [SIAIS220049, N-(4-((4-(6-((2-(2,6-dioxopiperidin-3-yl)-1,3-dioxoisoindolin-4-yl)thio)hexanoyl)piperazin-1-yl)methyl)-3-(trifluoromethyl)phenyl)-3-(imidazo[1,2-b]pyridazin-3-ylethynyl)-4-methylbenzamide] |  | 5.75 | 
Cc1ccc(C(=O)Nc2ccc(CN3CCN(C(=O)CCSc4cccc5c4CN(C4CCC(=O)NC4=O)C5=O)CC3)c(C(F)(F)F)c2)cc1C#Cc1cnc2cccnn12 (stereo not shown) [SIAIS220052, N-(4-((4-(3-((2-(2,6-dioxopiperidin-3-yl)-1-oxoisoindolin-4-yl)thio)propanoyl)piperazin-1-yl)methyl)-3-(trifluoromethyl)phenyl)-3-(imidazo[1,2-b]pyridazin-3-ylethynyl)-4-methylbenzamide] |  | 2.62 | 
Cc1sc2c(c1C)C(c1ccc(Cl)cc1)=N[C@@H](CC(=O)NCCOCCSc1cccc3c1CN(C1CCC(=O)NC1=O)C3=O)c1nnc(C)n1-2 (stereo partly drawn) [SIAIS213100, 2-((S)-4-(4-chlorophenyl)-2,3,9-trimethyl-6H-thieno[3,2-f][1,2,4]triazolo[4,3-a][1,4]diazepin-6-yl)-N-(2-(2-((2-(2,6-dioxopiperidin-3-yl)-1-oxoisoindolin-4-yl)thio)ethoxy)ethyl)acetamide] | 0.5 ± 0.1 |  | 
Cc1sc2c(c1C)C(c1ccc(Cl)cc1)=N[C@@H](CC(=O)NCCN1CCN(CCCSc3cccc4c3CN(C3CCC(=O)NC3=O)C4=O)CC1)c1nnc(C)n1-2 (stereo partly drawn) [SIAIS213136, 2-((S)-4-(4-chlorophenyl)-2,3,9-trimethyl-6H-thieno[3,2-f][1,2,4]triazolo[4,3-a][1,4]diazepin-6-yl)-N-(2-(4-(3-((2-(2,6-dioxopiperidin-3-yl)-1-oxoisoindolin-4-yl)thio)propyl)piperazin-1-yl)ethyl)acetamide] | 0.068 |  | IC50 [1, 5]: 0.04 nM

Reference: patent US12226424B2, “Target protein degradation compounds, their anti-tumor use, their intermediates and use of intermediates” (ShanghaiTech University, priority 2018, dated 2025)
